This test has as its target T1, human ROR1 (Homo sapiens, UniProt Q01973).
T1 construct: host or cells: HEK 293T cells, Tet-on system induced with doxycycline
The experiment in a line: ROR1 high content cell-based binding assay. Conditions: read-out: ROR1 Binding 293T Human HC Cell Based Assay IC50. The method, boiled down:
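Doxycycline-induced 293T cells expressing human ROR1, seeded overnight, were treated with compound plus 5-FAM-labeled ROR1-binding probe peptide (30 nM final) for 1 h at 37 °C. After washing and formaldehyde/Hoechst fixation, cell-bound probe fluorescence was read by high-content imaging.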

Consider 14 molecules from patent US20240116988A1, “ANTI-ROR1 MACROCYCLIC PEPTIDES AND COMPOSITIONS” (BRISTOL-MYERS SQUIBB COMPANY, priority 2022, published 2024).

Positions of bridges follow the written chain, without caps; N, C: chain ends. Non-standard residues stand in square brackets, D forms with d. Residues, ends and D or L forms follow the SMILES beside them. ξ: configuration not given here. NMeF = CN[C@@H](Cc1ccccc1)C(=O)O; NMeNle = CCCC[C@H](NC)C(=O)O; NMeA = CN[C@@H](C)C(=O)O; AEEA = NCCOCCOCC(=O)O; ξL = CC(C)CC(N)C(=O)O

T1 sequence (Q01973 30-937): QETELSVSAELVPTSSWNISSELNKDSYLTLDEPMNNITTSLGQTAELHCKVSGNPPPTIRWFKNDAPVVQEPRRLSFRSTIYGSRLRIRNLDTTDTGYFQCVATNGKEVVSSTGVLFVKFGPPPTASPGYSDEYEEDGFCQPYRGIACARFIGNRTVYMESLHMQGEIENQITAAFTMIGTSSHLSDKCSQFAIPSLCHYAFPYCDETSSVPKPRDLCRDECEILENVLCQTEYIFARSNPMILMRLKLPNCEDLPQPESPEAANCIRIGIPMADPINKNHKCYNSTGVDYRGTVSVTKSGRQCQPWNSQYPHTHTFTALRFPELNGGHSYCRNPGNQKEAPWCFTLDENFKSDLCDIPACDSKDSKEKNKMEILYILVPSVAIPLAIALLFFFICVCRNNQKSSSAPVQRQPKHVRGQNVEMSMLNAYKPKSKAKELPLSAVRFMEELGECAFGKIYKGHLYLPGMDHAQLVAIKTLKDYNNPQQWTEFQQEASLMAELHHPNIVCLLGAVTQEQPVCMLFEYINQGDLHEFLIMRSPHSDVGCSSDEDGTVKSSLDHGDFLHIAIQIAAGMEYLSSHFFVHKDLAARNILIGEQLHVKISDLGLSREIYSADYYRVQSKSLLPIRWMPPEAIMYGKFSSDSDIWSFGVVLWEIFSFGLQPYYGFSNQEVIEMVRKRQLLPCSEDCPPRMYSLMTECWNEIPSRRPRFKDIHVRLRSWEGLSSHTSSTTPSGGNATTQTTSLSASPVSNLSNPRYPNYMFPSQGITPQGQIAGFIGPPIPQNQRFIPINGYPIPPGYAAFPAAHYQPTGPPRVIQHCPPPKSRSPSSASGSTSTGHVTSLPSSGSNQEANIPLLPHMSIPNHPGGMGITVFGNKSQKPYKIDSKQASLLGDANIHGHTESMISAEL

In general, IC50 refers to the concentration that inhibits the measured activity by half. `CC(C)C[C@@H]1NC(=O)[C@H](Cc2ccc(O)cc2)NC(=O)[C@@H]2CCCN2C(=O)CSC[C@@H](C(=O)NCC(N)=O)NC(=O)[C@H](CC(C)C)NC(=O)[C@H](Cc2ccccc2)N(C)C(=O)[C@H](Cc2ccc(O)cc2)NC(=O)[C@H](Cc2c[nH]c3ccccc23)NC(=O)CNC(=O)[C@H](CO)NC(=O)[C@H](Cc2ccc(O)cc2)NC(=O)[C@H](C(C)C)NC1=O` [Example 1067] ({CH2CO}-PYLVYSGWY[NMeF]LCG-NH2; thioether N-12): the IC50 was 515 nM.

Regarding `CC(C)C[C@@H]1NC(=O)CNC(=O)[C@H](Cc2ccccc2)NC(=O)CSC[C@@H](C(=O)NCC(N)=O)NC(=O)[C@H](CC(C)C)NC(=O)[C@H](Cc2ccccc2)N(C)C(=O)[C@H](Cc2ccc(O)cc2)NC(=O)[C@H](Cc2c[nH]c3ccccc23)NC(=O)CNC(=O)[C@H](CO)NC(=O)[C@H](Cc2ccc(O)cc2)NC(=O)[C@H](C(C)C)NC1=O` [Example 1068] ({CH2CO}-FGLVYSGWY[NMeF]LCG-NH2; thioether N-12), the half-inhibitory concentration (IC50) turned out to be 453 nM. With `CC(C)C[C@@H]1NC(=O)[C@H](Cc2ccc(O)cc2)NC(=O)[C@H](Cc2ccccc2)NC(=O)CSC[C@@H](C(=O)NCC(N)=O)NC(=O)[C@H](CC(C)C)NC(=O)[C@H](Cc2ccccc2)N(C)C(=O)[C@H](Cc2ccc(O)cc2)NC(=O)[C@H](Cc2c[nH]c3ccccc23)NC(=O)CNC(=O)[C@H](CO)NC(=O)[C@H](Cc2ccc(O)cc2)NC(=O)[C@H](CO)NC1=O` [Example 1069] ({CH2CO}-FYLSYSGWY[NMeF]LCG-NH2; thioether N-12), the IC50 was found to be 82 nM. With `CC(C)C[C@@H]1NC(=O)[C@H](Cc2ccccc2)NC(=O)[C@H](Cc2ccc(O)cc2)NC(=O)[C@H](Cc2c[nH]c3ccccc23)NC(=O)CNC(=O)[C@H](CO)NC(=O)[C@H](Cc2ccc(O)cc2)NC(=O)[C@H](C(C)C)NC(=O)[C@H](CC(C)C)NC(=O)[C@H](Cc2ccc(O)cc2)NC(=O)[C@H](Cc2ccccc2)NC(=O)CSC[C@@H](C(=O)NCC(N)=O)NC1=O` [Example 1070] ({CH2CO}-FYLVYSGWYFLCG-NH2; thioether N-12) the figure was 65 nM; with `CC(C)C[C@@H]1NC(=O)[C@H](Cc2ccc(O)cc2)NC(=O)[C@H](Cc2ccccc2)NC(=O)CSC[C@@H](C(=O)NCC(N)=O)NC(=O)[C@H](CC(C)C)NC(=O)[C@H](Cc2ccccc2)N(C)C(=O)[C@H](Cc2ccc(O)cc2)NC(=O)[C@H](Cc2c[nH]c3ccccc23)NC(=O)[C@H](C)NC(=O)[C@H](CO)NC(=O)[C@H](Cc2ccc(O)cc2)NC(=O)[C@H](C(C)C)NC1=O` [Example 1071] ({CH2CO}-FYLVYSAWY[NMeF]LCG-NH2; thioether N-12), 72 nM; with `CC(C)C[C@@H]1NC(=O)CSC[C@@H](C(=O)NCC(N)=O)NC(=O)[C@H](CC(C)C)NC(=O)[C@H](Cc2ccccc2)N(C)C(=O)[C@H](Cc2ccc(O)cc2)NC(=O)[C@H](Cc2c[nH]c3ccccc23)NC(=O)CNC(=O)[C@H](CO)NC(=O)[C@H](Cc2ccc(O)cc2)NC(=O)[C@H](C(C)C)NC(=O)[C@H](CC(C)C)NC(=O)[C@H](Cc2ccc(O)cc2)NC1=O` [Example 1072] ({CH2CO}-LYLVYSGWY[NMeF]LCG-NH2; thioether N-12), 80 nM. In the case of `CC(C)C[C@@H]1NC(=O)[C@H](Cc2ccc(O)cc2)NC(=O)[C@H]([C@@H](C)O)NC(=O)CSC[C@@H](C(=O)NCC(N)=O)NC(=O)[C@H](CC(C)C)NC(=O)[C@H](Cc2ccccc2)N(C)C(=O)[C@H](Cc2ccc(O)cc2)NC(=O)[C@H](Cc2c[nH]c3ccccc23)NC(=O)CNC(=O)[C@H](CO)NC(=O)[C@H](Cc2ccc(O)cc2)NC(=O)[C@H](C(C)C)NC1=O` [Example 1073] ({CH2CO}-TYLVYSGWY[NMeF]LCG-NH2; thioether N-12), the IC50 is 249 nM. Consider `CC(C)CC1NC(=O)[C@H](Cc2ccc(O)cc2)NC(=O)[C@H](C(C)C)NC(=O)CSC[C@@H](C(=O)NCC(N)=O)NC(=O)[C@H](CC(C)C)NC(=O)[C@H](Cc2ccccc2)N(C)C(=O)[C@H](Cc2ccc(O)cc2)NC(=O)[C@H](Cc2c[nH]c3ccccc23)NC(=O)CNC(=O)[C@H](CO)NC(=O)[C@H](Cc2ccc(O)cc2)NC(=O)[C@H](C(C)C)NC1=O` (some centres unmarked) [Example 1074] ({CH2CO}-VY[ξL]VYSGWY[NMeF]LCG-NH2; thioether N-12), for which the IC50 is 122 nM. Under `CC(C)C[C@@H]1NC(=O)[C@H](Cc2ccc(O)cc2)NC(=O)[C@H](Cc2cnc[nH]2)NC(=O)CSC[C@@H](C(=O)NCC(N)=O)NC(=O)[C@H](CC(C)C)NC(=O)[C@H](Cc2ccccc2)N(C)C(=O)[C@H](Cc2ccc(O)cc2)NC(=O)[C@H](Cc2c[nH]c3ccccc23)NC(=O)CNC(=O)[C@H](CO)NC(=O)[C@H](Cc2ccc(O)cc2)NC(=O)[C@H](C(C)C)NC1=O` [Example 1075] ({CH2CO}-HYLVYSGWY[NMeF]LCG-NH2; thioether N-12) stands 30 nM; under `CC(C)C[C@@H]1NC(=O)[C@H](Cc2ccc(O)cc2)NC(=O)[C@H](CC(N)=O)NC(=O)CSC[C@@H](C(=O)NCC(N)=O)NC(=O)[C@H](CC(C)C)NC(=O)[C@H](Cc2ccccc2)N(C)C(=O)[C@H](Cc2ccc(O)cc2)NC(=O)[C@H](Cc2c[nH]c3ccccc23)NC(=O)CNC(=O)[C@H](CO)NC(=O)[C@H](Cc2ccc(O)cc2)NC(=O)[C@H](C(C)C)NC1=O` [Example 1076] ({CH2CO}-NYLVYSGWY[NMeF]LCG-NH2; thioether N-12), 518 nM. With `CC(C)C[C@@H]1NC(=O)[C@H](Cc2ccc(O)cc2)NC(=O)[C@H](Cc2c[nH]c3ccccc23)NC(=O)CSC[C@@H](C(=O)NCC(N)=O)NC(=O)[C@H](CC(C)C)NC(=O)[C@H](Cc2ccccc2)N(C)C(=O)[C@H](Cc2ccc(O)cc2)NC(=O)[C@H](Cc2c[nH]c3ccccc23)NC(=O)CNC(=O)[C@H](CO)NC(=O)[C@H](Cc2ccc(O)cc2)NC(=O)[C@H](C(C)C)NC1=O` [Example 1077] ({CH2CO}-WYLVYSGWY[NMeF]LCG-NH2; thioether N-12) the figure was 2 nM. For `CCCC[C@H]1C(=O)N[C@@H](CC(C)C)C(=O)N[C@H](C(=O)NCCOCCOCC(=O)N[C@@H](CCCCN)C(N)=O)CSCC(=O)N[C@@H](Cc2ccccc2)C(=O)N[C@@H](Cc2ccc(O)cc2)C(=O)N[C@@H](Cc2c[nH]c3ccccc23)C(=O)N[C@@H](CO)C(=O)N[C@@H](CO)C(=O)N[C@@H](CCCNC(=N)N)C(=O)N(C)[C@@H](C)C(=O)N[C@@H](Cc2c[nH]c3ccccc23)C(=O)N[C@@H](Cc2ccc(O)cc2)C(=O)N1C` [Example 1079] ({CH2CO}-FYWSSR[NMeA]WY[NMeNle]LC[AEEA]K-NH2; thioether N-12), the IC50 came out at 25 nM.

With `CC(C)C[C@@H]1NC(=O)[C@H](Cc2ccc(O)cc2)NC(=O)[C@H](Cc2ccccc2)NC(=O)CSC[C@@H](C(=O)NCC(=O)O)NC(=O)[C@H](CC(C)C)NC(=O)[C@H](Cc2ccccc2)N(C)C(=O)[C@H](Cc2ccc(O)cc2)NC(=O)[C@H](Cc2c[nH]c3ccccc23)NC(=O)CNC(=O)[C@H](CO)NC(=O)[C@H](Cc2ccc(O)cc2)NC(=O)[C@H](C(C)C)NC1=O` [Example 1080] ({CH2CO}-FYLVYSGWY[NMeF]LCG-OH; thioether N-12), the concentration for half-maximal inhibition (IC50) was determined as 217 nM. Under `CC[C@H](C)[C@@H]1NC(=O)[C@H](Cc2ccccc2)NC(=O)CSC[C@@H](C(=O)NCC(=O)NCCOCCOCC(=O)N[C@@H](CCCCN)C(N)=O)NC(=O)[C@H](C)NC(=O)[C@H](Cc2ccccc2)NC(=O)[C@H](Cc2ccc(O)cc2)NC(=O)[C@H](Cc2c[nH]c3ccccc23)NC(=O)CNC(=O)[C@H](CCC(=O)O)NC(=O)[C@H](Cc2ccc(O)cc2)NC(=O)[C@H](C(C)C)NC(=O)[C@H](Cc2c[nH]c3ccccc23)NC1=O` [Example 1081] ({CH2CO}-FIWVYEGWYFACG[AEEA]K-NH2; thioether N-12) stands 177 nM.
